In patent publication US20260042731A1, “(2,4-DICHLOROPHENOXY)ACETIC ACID ANALOGS” (CORTEVA AGRISCIENCE LLC, priority 2022, published 2026):
Like-named read-outs stand apart in the source and are kept apart here.

Assays:
[1] = test system: Chenopodium album (CHEAL), common lambsquarters; assay: Postemergence herbicide evaluation, growth of Chenopodium album (CHEAL); assay type: in vivo; settings: Chenopodium album, post-emergence, percent reduction in plant size relative to untreated control, read-out: Ave. CHEAL; for pest or weed control at 280 g/ha: 280 g ae/ha; for pest or weed control at 560 g/ha: 560 g ae/ha
[2] = test system: Ambrosia artemisiifolia (AMBEL), common ragweed; assay: Postemergence herbicide evaluation, growth of Ambrosia artemisiifolia (AMBEL); assay type: in vivo; settings: Ambrosia artemisiifolia, post-emergence, percent reduction in plant size relative to untreated control, read-out: AVE. AMBEL; for pest or weed control at 280 g/ha: 280 g ae/ha; for pest or weed control at 560 g/ha: 560 g ae/ha
Corn (ZEAMX) = assay: Greenhouse post-emergence mixture trials, percent visual control; assay type: in vivo; settings: ZEAMX, 21 DAA
[3] = test system: Abutilon theophrasti (ABUTH), velvetleaf; assay: Postemergence herbicide evaluation, growth of Abutilon theophrasti (ABUTH); assay type: in vivo; settings: Abutilon theophrasti, post-emergence, percent reduction in plant size relative to untreated control, read-out: AVE. ABUTH; for pest or weed control at 280 g/ha: 280 g ae/ha; for pest or weed control at 560 g/ha: 560 g ae/ha
Velvetleaf (ABUTH) = assay: Greenhouse post-emergence mixture trials, percent visual control; assay type: in vivo; settings: ABUTH, 21 DAA; for pest or weed control at 560 g/ha / pest or weed control at 1120 g/ha: Abutilon theophrasti, post-emergence, 504 h, no mixing partner; for pest or weed control at 1120 g/ha: read-out: % Control
[4] = test system: glyphosate resistant Conyza canadensis (L.) (ERICA), horseweed; assay: Postemergence herbicide evaluation, growth of Conyza canadensis (ERICA); assay type: in vivo; settings: Erigeron canadensis, post-emergence, percent reduction in plant size relative to untreated control, read-out: Ave. ERICA; for pest or weed control at 280 g/ha: 280 g ae/ha; for pest or weed control at 560 g/ha: 560 g ae/ha
[5] = test system: Amaranthus rudis (AMATA), tall water hemp; assay: Postemergence herbicide evaluation, growth of Amaranthus rudis (AMATA); assay type: in vivo; settings: Amaranthus tuberculatus, post-emergence, percent reduction in plant size relative to untreated control, read-out: Ave. AMATA; for pest or weed control at 280 g/ha: 280 g ae/ha; for pest or weed control at 560 g/ha: 560 g ae/ha
[6] = Volatility of compounds measured by thermogravimetric analysis (TGA); assay type: physicochemical
[7] = test system: weeds (ABUTH, AMATA, AMBEL, CHEAL, ERICA); assay: Postemergence herbicide evaluation, overall average % weed control across ABUTH, AMATA, AMBEL, CHEAL, ERICA; assay type: in vivo; settings: post-emergence, average over the five weeds, read-out: Overall Ave % Weed Control; for pest or weed control at 280 g/ha: 280 g ae/ha; for pest or weed control at 560 g/ha: 560 g ae/ha
[8] = test system: Common Lambsquarters (CHEAL); assay: Greenhouse post-emergence mixture trials, percent visual control; assay type: in vivo; settings: CHEAL, 21 DAA; for pest or weed control at 560 g/ha / pest or weed control at 1120 g/ha: Chenopodium album, post-emergence, 504 h, no mixing partner; for pest or weed control at 1120 g/ha: read-out: % Control
[9] = Trial Bridge 2, compound 560 g ae/ha
[10] = Trial Bridge 2, compound 1120 g ae/ha
[11] = Trial Bridge 1, compound 560 g ae/ha + Glufosinate 600 g ai or ae/ha
[12] = Trial Bridge 2, compound 560 g ae/ha + Saflufenacil 25 g ai or ae/ha
[13] = Trial Bridge 2, compound 560 g ae/ha + Saflufenacil 75 g ai or ae/ha
[14] = Trial Bridge 2, compound 560 g ae/ha + Trifludimoxazin 12.5 g ai or ae/ha
[15] = Trial Bridge 2, compound 560 g ae/ha + Trifludimoxazin 50 g ai or ae/ha
[16] = Trial Bridge 2, compound 1120 g ae/ha + Saflufenacil 25 g ai or ae/ha
[17] = Trial Bridge 2, compound 1120 g ae/ha + Saflufenacil 75 g ai or ae/ha
[18] = Trial Bridge 2, compound 1120 g ae/ha + Trifludimoxazin 50 g ai or ae/ha

O=C(COc1ccc(Cl)cc1Cl)NNC(=O)c1ccccc1 [Compound D10]
pest or weed control at 280 g/ha ([1]; 168 h, 7 DAA): 63%
pest or weed control at 560 g/ha ([1]; 168 h, 7 DAA): 65%
pest or weed control at 280 g/ha ([1]; 336 h, 14 DAA): 68%
pest or weed control at 560 g/ha ([1]; 336 h, 14 DAA): 83%
pest or weed control at 280 g/ha ([1]; 504 h, 21 DAA): 73%
pest or weed control at 560 g/ha ([1]; 504 h, 21 DAA): 85%
pest or weed control at 280 g/ha ([2]; 168 h, 7 DAA): 73%
pest or weed control at 560 g/ha ([2]; 168 h, 7 DAA): 83%
pest or weed control at 280 g/ha ([2]; 336 h, 14 DAA): 91%
pest or weed control at 560 g/ha ([2]; 336 h, 14 DAA): 97%
pest or weed control at 280 g/ha ([2]; 504 h, 21 DAA): 93%
pest or weed control at 560 g/ha ([2]; 504 h, 21 DAA): 100%
% Control (Corn (ZEAMX); Trial Bridge 1, compound 560 g ae/ha + Glyphosate 1120 g ai or ae/ha): 75%
% Control (Corn (ZEAMX); Trial Bridge 1, compound 560 g ae/ha + Glyphosate 1120 g ai or ae/ha, single replicate): 70%
% Control (Corn (ZEAMX); Trial Bridge 1, compound 1120 g ae/ha, no mixing partner, single replicate): 10%
plant injury at 1120 g/ha (Corn (ZEAMX); Zea mays, post-emergence, 504 h, Trial Bridge 1, compound 1120 g ae/ha, no mixing partner, single replicate): 10%
plant injury at 560 g/ha (Corn (ZEAMX); Zea mays, post-emergence, 504 h, compound 560 g ae/ha, no mixing partner, Trial Bridge 3): 5%
pest or weed control at 280 g/ha ([3]; 168 h, 7 DAA): 88%
pest or weed control at 560 g/ha ([3]; 168 h, 7 DAA): 83%
pest or weed control at 280 g/ha ([3]; 336 h, 14 DAA): 85%
pest or weed control at 560 g/ha ([3]; 336 h, 14 DAA): 96%
pest or weed control at 280 g/ha ([3]; 504 h, 21 DAA): 91%
pest or weed control at 560 g/ha ([3]; 504 h, 21 DAA): 100%
% Control (Velvetleaf (ABUTH); compound 1120 g ae/ha + Sulfentrazone 130 g ai/ha, Trial Bridge 3): 100%
% Control (Velvetleaf (ABUTH); compound 1120 g ae/ha + Sulfentrazone 347 g ai/ha, Trial Bridge 3): 100%
pest or weed control at 560 g/ha (Velvetleaf (ABUTH); compound 560 g ae/ha, Trial Bridge 3): 85%
pest or weed control at 1120 g/ha (Velvetleaf (ABUTH); compound 1120 g ae/ha, Trial Bridge 3): 95%
pest or weed control at 560 g/ha (Velvetleaf (ABUTH); Trial Bridge 1 Trt 2, D10 560 g ae/ha): 99%
pest or weed control at 1120 g/ha (Velvetleaf (ABUTH); Trial Bridge 1 Trt 3, D10 1120 g ae/ha): 100%
pest or weed control at 560 g/ha (Velvetleaf (ABUTH); [9]): 100%
pest or weed control at 1120 g/ha (Velvetleaf (ABUTH); [10]): 100%
% Control (Velvetleaf (ABUTH); [11]): 100%
% Control (Velvetleaf (ABUTH); Trial Bridge 1 Trt 5, D10 560 g ae/ha + diclosulam 35 g ai or ae/ha): 100%
% Control (Velvetleaf (ABUTH); Trial Bridge 1 Trt 6, D10 1120 g ae/ha + diclosulam 35 g ai or ae/ha): 100%
% Control (Velvetleaf (ABUTH); Trial Bridge 1 Trt 8, D10 560 g ae/ha + Arylex 5 g ai or ae/ha): 100%
% Control (Velvetleaf (ABUTH); Trial Bridge 1 Trt 9, D10 1120 g ae/ha + Arylex 5 g ai or ae/ha): 100%
% Control (Velvetleaf (ABUTH); Trial Bridge 1 Trt 11, D10 560 g ae/ha + Mesotrione 150 g ai or ae/ha): 100%
% Control (Velvetleaf (ABUTH); Trial Bridge 1 Trt 12, D10 1120 g ae/ha + Mesotrione 150 g ai or ae/ha): 100%
% Control (Velvetleaf (ABUTH); Trial Bridge 1 Trt 14, D10 560 g ae/ha + Glyphosate 1120 g ai or ae/ha): 100%
% Control (Velvetleaf (ABUTH); Trial Bridge 1 Trt 15, D10 1120 g ae/ha + Glyphosate 1120 g ai or ae/ha): 100%
% Control (Velvetleaf (ABUTH); [12]): 100%
% Control (Velvetleaf (ABUTH); [13]): 100%
% Control (Velvetleaf (ABUTH); [14]): 100%
% Control (Velvetleaf (ABUTH); [15]): 100%
% Control (Velvetleaf (ABUTH); [16]): 100%
% Control (Velvetleaf (ABUTH); [17]): 100%
% Control (Velvetleaf (ABUTH); [18]): 100%
pest or weed control at 280 g/ha ([4]; 168 h, 7 DAA): 63%
pest or weed control at 560 g/ha ([4]; 168 h, 7 DAA): 65%
pest or weed control at 280 g/ha ([4]; 336 h, 14 DAA): 83%
pest or weed control at 560 g/ha ([4]; 336 h, 14 DAA): 88%
pest or weed control at 280 g/ha ([4]; 504 h, 21 DAA): 93%
pest or weed control at 560 g/ha ([4]; 504 h, 21 DAA): 99%
pest or weed control at 280 g/ha ([5]; 168 h, 7 DAA): 68%
pest or weed control at 560 g/ha ([5]; 168 h, 7 DAA): 80%
pest or weed control at 280 g/ha ([5]; 336 h, 14 DAA): 94%
pest or weed control at 560 g/ha ([5]; 336 h, 14 DAA): 96%
pest or weed control at 280 g/ha ([5]; 504 h, 21 DAA): 85%
pest or weed control at 560 g/ha ([5]; 504 h, 21 DAA): 85%
TGA Data (rate of weight loss, volatility) [6]: 0.3 µg/min
pest or weed control at 280 g/ha ([7]; 168 h, 7 DAA): 71%
pest or weed control at 560 g/ha ([7]; 168 h, 7 DAA): 75%
pest or weed control at 280 g/ha ([7]; 336 h, 14 DAA): 84%
pest or weed control at 560 g/ha ([7]; 336 h, 14 DAA): 92%
pest or weed control at 280 g/ha ([7]; 504 h, 21 DAA): 87%
pest or weed control at 560 g/ha ([7]; 504 h, 21 DAA): 94%
% Control [8, 12]: 100%
% Control [8, 13]: 100%
% Control [8, 14]: 100%
% Control [8, 15]: 100%
% Control [8, 16]: 100%
% Control [8, 17]: 100%
% Control ([8]; Trial Bridge 2, compound 1120 g ae/ha + Trifludimoxazin 12.5 g ai or ae/ha): 100%
% Control [8, 18]: 100%
% Control ([8]; Trial Bridge 3, compound 560 g ae/ha + Sulfentrazone 130 g ai/ha): 100%
% Control ([8]; Trial Bridge 3, compound 560 g ae/ha + Sulfentrazone 347 g ai/ha): 100%
% Control ([8]; Trial Bridge 3, compound 1120 g ae/ha + Sulfentrazone 130 g ai/ha): 100%
% Control ([8]; Trial Bridge 3, compound 1120 g ae/ha + Sulfentrazone 347 g ai/ha): 100%
pest or weed control at 560 g/ha [8, 9]: 95%
pest or weed control at 1120 g/ha [8, 10]: 95%
pest or weed control at 560 g/ha ([8]; Trial Bridge 3, compound 560 g ae/ha): 95%
pest or weed control at 1120 g/ha ([8]; Trial Bridge 3, compound 1120 g ae/ha): 100%
pest or weed control at 560 g/ha ([8]; Trial Bridge 1, compound 560 g ae/ha): 95%
pest or weed control at 1120 g/ha ([8]; Trial Bridge 1, compound 1120 g ae/ha): 95%
% Control [8, 11]: 100%
% Control ([8]; Trial Bridge 1, compound 560 g ae/ha + Mesotrione 150 g ai or ae/ha): 100%
% Control ([8]; Trial Bridge 1, compound 1120 g ae/ha + Arylex 5 g ai or ae/ha): 95%
% Control ([8]; Trial Bridge 1, compound 1120 g ae/ha + Mesotrione 150 g ai or ae/ha): 100%
